In patent publication US5011828A, “Immunostimulating guanine derivatives, compositions and methods” (priority 1988, dated 1991):
Converted amounts (≈) assume the structure as drawn. “And” between values parts separate entries of the source, which are not always exact repeats. Identical values can stand only once. One block for each molecule: values may come before it.

Key:
[1] = system: murine lymphocytes (sheep red blood cells as antigen); assay: Antigen-specific adjuvanticity: direct anti-SRBC plaque forming cells, murine system; type: cell-based, mouse; settings: for Peak Direct anti-SRBC PFC/Culture: murine system, at peak concentration; for Average 1 Log Plaque Values: Table 9, murine, * = single study
Source text: ^1 Adjuvanticities against sheep red blood cells [SRBC] measured in
direct plaqueforming cells per culture of lymphocytes from the mouse
strains shown. Details of the procedure are provided in the Materials and
Methods Section. Standard errors from the enumerated mean values are show
A large number of comparisons of adjuvanticity using human and murine lymphocytes as the source of leukocytes have been carried out using compounds of the present invention, as well as with new compounds excluded from the present invention. […] Interstudy comparisons are however useful for showing trends and large differences. Tables 5, 6 and 7, hereinafter, provide exemplary data from such studies in which only the activity at the peak concentration is shown for each compound and the results for the controls are omitted.
Lymphocyte cultures. The serum-containing culture medium water prepared to contain the following per 100 milliliters: 91.9 milliliters RPMI 1640 (Flow Laboratories, Inc., Rockville, Md.), 0.1 milliliters of 100×glutamine, 1.0 milliliter of 100×sodium pyruvate, 1 0 milliliter of 50×nonessential amino acids, 1.0 milliliter of water containing 10^4 units of penicillin G and 10^4 micrograms of streptomycin, and 5.0 milliliters of a supportive lot of fetal calf serum (FCS). These ingredients were admixed to apparent homogeneity. Spleen cell suspensions and populations enriched for splenic B cells were prepared as described in Goodman et al., J. Immunol., 121:1905 (1978).
For evaluation of the primary humoral immune response to sheep erythrocytes (SRBC), 5×10^6 to 10^7 murine spleen cells were cultured in 1.0 milliliter of 5% FCS-containing medium for 4 or 5 days in the presence and absence of immunogen. Cells were incubated in culture trays (Costar, Cambridge, Mass.) at 37° C. in a humidified atmosphere of 10% CO2 in air using tissue culture boxes (CBS Scientific, Del Mar, Calif.) that were rocked at a frequency of 7 cycles per minute. Pooled SRBC are available from the Colorado Serum Co., Denver Colo.
(§1) Assay of plaque forming cells (PFC). PFC secreting antibodies against SRBC were evaluated after 4 or 5 days of culture using a modification of the hemolytic plaque assay of Jerne and Nordin, Science, 140:405 (1963). The cells were brought up in complete medium before plaquing; they were plaqued in standard low Mr agarose (Bio-Rad Laboratories, Richmond Calif.), and were incubated in SRBC-absorbed guinea pig complement for one hour after a 1.5 hour incubation without complement.

[2] = system: SJL splenocytes (irradiated CBA/CaJ splenocyte stimulators); assay: T cell proliferation in mixed leukocyte cultures, SJL splenocytes; type: cell-based, mouse; settings: responder +, stimulator +, 10^-3 M
Source text: In evaluating the effect of a guanosine derivative on alloantigen-induced proliferation, it is imperative to minimize the simultaneous mitogenic response of B cells to contact with a guanosine derivative. Spleen cells from SJL mice (whose B cells are hyporesponsive to the mitogenic effect of a guanosine derivative, but not to its adjuvant activity) were used as responder cells in two studies. Those responder cells were stimulated with irradiated allogenic cells (from CBA/CaJ mice) in the presence of no added nucleoside, incremental amounts of a guanosine derivative of the invention, 7M8oGuo, or with another guanosine derivative, 8MGuo, used as a positive control.
(§2) ^1 Plus signs (+) are utilized to indicate the presence of the
material of the column heading in the culture medium, whereas minus signs
(-) are utilized to show absence of such a material from the culture
(§3) ^3 Allogeneic cells used to costimulate proliferation, after exposure
(§4) T Helper Cell Activation. 1.5×10^5 viable spleen cells from SJL mice or CBA/CaJ mouse thymocytes were cultured with or without an equal number of irradiated (2500 rads) spleen cells from CBA/CaJ or BDFl mice respectively, in 0.2 ml of culture medium in the presence of incremental concentrations of the exemplary 7,8-disubstituted guanine derivatives. The lymphocyte culture medium utilized was that described before, and was further supplemented with 2-mercaptoethanol to a final concentration of 50 uM. Thymocyte cultures also contained 10 percent (v/v) of a concanavalin A-conditioned rat spleen cell medium sold under the name Rat T Cell Monoclone by Collaborative Research. Following 90 hours of culture, one microCurie [^3 H]TdR per culture was admixed, and the resulting culture was maintained for a further six hour time period.
(§5) The cultures were harvested with a Brandel cell harvester (M24V, Biological Research and Development Laboratories, Rockville, Md.) onto glass fiber filter disks. Filter disks were transferred to plastic scintillation vials, covered with liquid scintillation cocktail, and counted in a Beckman LS5700 liquid scintillation counter.

[3] = system: CBA/CaJ thymocytes (irradiated BDF1 splenocyte stimulators); assay: T cell proliferation in mixed leukocyte cultures, CBA/CaJ thymocytes; type: cell-based, mouse; settings: Study 3, responder +, stimulator +
Source text: A third and fourth study utilized thymocytes from CBA/CaJ mice as the stimulated (responder) cells, and irradiated BDFl mouse spleen cells as the stimulator cells. Two guanosine derivatives of the present invention, 7a8MGuo and 7a8oGuo, were used for these studies, with 8MGuo serving as positive control for one of the studies.
However, in the presence of interleukin-2 (IL-2), those cells develop responsiveness to allogeneic stimulation. The present studies utilizing thymocytes were therefore carried out in the presence of a co-stimulating amount of IL-2.
as §2, §3, §4, §5

physchem = type: physicochemical, human; settings: human, urine
Source text: Solubilities in urine could be expected to be lower than those for water due to the relatively higher salt content in urine than is found in water.
Each sample was filtered through a 5 micron pore-sized filter, diluted as necessary with the HPLC mobile phase, and then quantified by HPLC.

[4] = system: human peripheral blood lymphocytes (sheep red blood cells as antigen); assay: Antigen-specific adjuvanticity: direct anti-SRBC plaque forming cells, human system; type: cell-based; settings: for Average 1 Log Plaque Values: Table 9, human, * = single study
Experimental: ^1 Studies were carried in a manner similar to those of Table 1,
except that a human lymphocyte preparation was used.
The results shown in Table 7, below, were obtained similarly to those discussed above, but using human lymphocytes. Some of those studies utilized lymphocytes from more than one individual, and are therefore reported with multiple entries.
Human peripheral blood lymphocytes (PBL) were prepared from normal heparinized venous blood by Ficoll-diatrizoate density gradient centrifugation. PBL were depleted of suppressor T cells bearing the histamine type 2 receptor by adhering them to the surfaces of histamine-rabbit serum albumin-coated plastic petri dishes (Cell-ect No. 2 kit; Seragen, Boston, Mass.) and by recovering the nonadherent cells by panning as described by Wysocki and Sato, Proc. Natl. Acad. Sci. USA, 75:2844 (1978) and modified by Cavagnaro and Osband, Biotechniques, January/February:30 (1983).
The tissue culture medium employed in these studies for human lymphocytes was prepared as follows: One hundred milliliters (ml) contained 87.9 ml RPMI 1640 (Flow Laboratories, Rockville, Md.), 0.1 ml 100×glutamine,1.0 ml of 1.0 M HEPES buffer (Microbilogical Associates, Betheseda, Md.), 1.0 ml of water containing 10^4 U of penicillin G and 10^4 micrograms of streptomycin, and 10 ml of fresh autologous heat-inactivatedplasma. For evaluation of the primary humoral immune response to SRBC, lymphoid cells prepared as above were cultured at a density of 2×10^6 /ml in a volume of 1.0 ml containing 5×10^6 SRBC as antigen (Colorado Serum Co., Denver, Colo.) together with IL-2 (a partially purified preparation of human IL-2 that was free of interferon-gamma activity was obtained from Electro-Nucleonics, Inc., Silver Spring, Md.) and the guanine nucleoside derivative.
as §1

murine spleen cells = assay: Mitogenicity: [3H]TdR uptake, murine system; type: cell-based, mouse; settings: Table 4
Source text: ^1 Mitogenicity measured by the uptake of [^3 H]TdR
(tritiumlabeled thymidine deoxyribonucleoside) as determined by measuring
counts per minute (cpm) per cell culture using the conditions discussed i
the Materials and Methods Section.

lymphocytes = settings: cited from earlier work

SMILES: Nc1nc2c(nc(S)n2[C@@H]2O[C@H](CO)[C@@H](O)[C@H]2O)c(=O)[nH]1 [8MGuo, 8-mercaptoguanosine, reference compound]
Direct Anti-SRBC PFC/Culture ([1]; Table 1, C57BL/6J, 3 × 10^-4 M): 11,000 ± 140 PFC/Culture | Direct Anti-SRBC PFC/Culture ([1]; Table 1, CBA/CaJ, 3 × 10^-4 M): 527 ± 25 PFC/Culture and 782 ± 123 PFC/Culture | Direct Anti-SRBC PFC/Culture ([1]; Table 1, CBA/CaJ, 10^-4 M): 813 ± 129 PFC/Culture | Peak Direct anti-SRBC PFC/Culture ([1]; Table 6): 527 ± 25 PFC/Culture | [3H] TdR Uptake ([2]; Study 1): 28,100 ± 2700 counts per minute | [3H] TdR Uptake ([2]; Study 2): 30,800 ± 1300 counts per minute | [3H] TdR Uptake ([3]; 10^-4 M): 13,800 ± 1000 counts per minute | [3H] TdR Uptake ([3]; 10^-5 M): 15,600 ± 1000 counts per minute

solubility at 18 h (physchem): 4880 µg/mL (≈ 15.6 mM)
SMILES: Cn1c(=O)n([C@@H]2O[C@H](CO)[C@@H](O)[C@H]2O)c2nc(N)[nH]c(=O)c21 [7m8oGuo, 7-methyl-8-oxoguanosine, reference compound]
Peak Direct anti-SRBC PFC/Culture ([4]; Table 7, first group, person a): 1250 ± 125 PFC/Culture | Peak Direct anti-SRBC PFC/Culture ([4]; Table 7, first group, person b): 830 ± 67 PFC/Culture | Peak Direct anti-SRBC PFC/Culture ([4]; Table 7, first group, person c): 1225 ± 175 PFC/Culture | Peak Direct anti-SRBC PFC/Culture ([4]; Table 7, second group, person a): 528 PFC/Culture | Peak Direct anti-SRBC PFC/Culture ([4]; Table 7, second group, person b): 297 PFC/Culture | Peak Direct anti-SRBC PFC/Culture ([4]; Table 7, second group, person c): 263 PFC/Culture | Average 1 Log Plaque Values [4]: 867 ± 217 per micromole | Peak Direct anti-SRBC PFC/Culture ([1]; Table 5): 723 ± 143 PFC/Culture | Direct Anti-SRBC PFC/Culture ([1]; Table 8, 1 × 10^-5 M): 145 PFC/Culture | Average 1 Log Plaque Values [1]: 22,359 ± 5154 per micromole | [3H] TdR Uptake (murine spleen cells; 3 × 10^-4 M): 39,620 ± 1160 cpm/culture | [3H] TdR Uptake (murine spleen cells; 10^-3 M): 35,070 ± 1830 cpm/culture | [3H] TdR Uptake (murine spleen cells; 10^-4 M): 23,640 ± 770 cpm/culture

SMILES: CCn1c(=O)n([C@@H]2O[C@H](CO)[C@@H](O)[C@H]2O)c2nc(N)[nH]c(=O)c21 [compound 23643, 7-Ethyl-8-oxoguanosine]
Peak Direct anti-SRBC PFC/Culture ([4]; Table 7, later studies, single preparation): 9045 ± 310 PFC/Culture | Direct Anti-SRBC PFC/Culture ([1]; Table 8, 1 × 10^-5 M): 270 PFC/Culture | peak concentration lower than comparison compound ([1]; murine system (Table 5), vs 8-BrGuo): 1.5 log units | [3H] TdR Uptake (murine spleen cells; 3 × 10^-4 M): 48,690 ± 1120 cpm/culture | [3H] TdR Uptake (murine spleen cells; 10^-3 M): 34,160 ± 780 cpm/culture | [3H] TdR Uptake (murine spleen cells; 10^-4 M): 37,490 ± 540 cpm/culture

SMILES: CCCCn1c(=O)n([C@@H]2O[C@H](CO)[C@@H](O)[C@H]2O)c2nc(N)[nH]c(=O)c21 [compound 23644, 7-Butyl-8-oxoguanosine]
Average 1 Log Plaque Values [4]: 52,397 per micromole | peak adjuvanticity values greater as compared to 7m8oGuo ([4]; human system (Table 3)): about 100% | Peak Direct anti-SRBC PFC/Culture ([1]; Table 5): 1058 ± 154 PFC/Culture | Direct Anti-SRBC PFC/Culture ([1]; Table 8, 1 × 10^-5 M): 900 PFC/Culture | Average 1 Log Plaque Values [1]: 118,886 ± 80,092 per micromole | [3H] TdR Uptake (murine spleen cells; 3 × 10^-4 M): 41,180 ± 410 cpm/culture | [3H] TdR Uptake (murine spleen cells; 10^-3 M): 33,220 ± 1330 cpm/culture | [3H] TdR Uptake (murine spleen cells; 10^-4 M): 30,720 ± 1030 cpm/culture

SMILES: Nc1nc2c(nc(Br)n2[C@@H]2O[C@@H]3COP(=O)(O)O[C@H]3[C@H]2O)c(=O)[nH]1 [8-BrcGMP, 8-Bromoguanosine-3',5'-cyclic monophosphate]
lymphocyte mitogenicity, in words (lymphocytes): weak synthetic intracellular lymphocyte mitogen
